Counter-ions that a name gives are not always drawn.
What was measured:
[1] = Acute toxicity in mice (LD 50); type: in vivo; conditions: mouse, in vivo, mice, 15 days observation
Procedure: (§1) The study is carried out on batches of 5 Swiss female mice of the NMRI Han. strain. The products are administered either intravenously (into the caudal vein) in solution in a 9 g..permill. sodium chloride solution, or orally (probang) in suspension in a 10% solution of gum arabic.
(§2) The animals are observed for the 15 days following the administration of the products.
(§3) The LD 50 values are calculated by the method of Karber and Behrens (Arch. Exp. Pathol. Pharm. 177, 1935, page 379).

[2] = Cardiovascular action in dogs; type: in vivo, male Beagle dogs
Procedure: Male Beagle dogs weighing 9 to 12 kg. were anaesthetised by intrasaphenous injection of a 2% solution of chloralose in physiological solution, at a dose of 100 mg./kg.
The anaesthesia is maintained by slow perfusion of 5% pentobarbital (1.2 ml./hour).
The animals are tracheotomised and placed under assisted respiration by means of a Bird respirator. Their oxygenation and their acid-base equilibrium are controlled by determination of the pH, the pCO2 and the pO2 on blood samples taken from a collateral of the brachial artery (pH/gas analyser for blood, IL model 213/227).
The different parameters are recorded on a polygraph.

[3] = system: isolated auricle of a rabbit; test: Peripheral vasomotoricity, isolated and perfused auricle of a rabbit; conditions: for activation at 0.0001 mg / activation at 0.001 mg / activation at 0.01 mg / activation at 0.1 mg: Oryctolagus cuniculus, read-out: Maximum variations in the flow rate; for activation at 0.0001 mg: dose 0.1 μg.; for activation at 0.001 mg: dose 1 μg.; for activation at 0.01 mg: dose 10 μg.; for activation at 0.1 mg: dose 100 μg.; for peripheral vasodilatory action: in words
Procedure: The flow rate of the liquid issuing from the veins is recorded by electronic contact on a polygraph. The products to be studied are injected at increasing doses into the perfusion tube and their actions are compared to that of isoxsuprine used as the reference substance.
The results, collected in Table No. III, are expressed in the maximum percentage increase of the flow rate at the various doses used.

mice = test: Acute toxicity in mice (LD 50); type: in vivo; conditions: intravenous; in words
Procedure: as §1, §2, §3

[4] = system: hypertensive effects of electrical stimulation, adrenaline and noradrenaline; test: α-Sympatholytic effects in amyeliated rats; type: in vivo; conditions: for % variation of the hypertensive effects obtained with adrenaline: adrenaline 1.25 to 2.5 μg./kg.; for % variation of the hypertensive effects obtained with noradrenaline: noradrenaline 1.25 to 2.5 μg./kg.
Source text: The α-sympatholytic effects of LJ 1052 and LJ 1053 are compared with those of isoxsuprine in amyeliated rats which have been prepared by a method derived from those of Shipley and Tilden (Proc. soc. Exp. Biol. Med. 1947, 64, 453-455) and of Gillespie and Muir (Br. J. Pharmac. Chemother. 1967, 30, 78-87).
The effects on the blood pressure of electrical stimulation of the thoracolumbar sympathic nerve (rectangular signals = voltage 20 to 40 volts; width 2 m. sec; frequency 10 secs.; duration 5 to 10 secs.) and of injections of adrenaline (1.25 to 2.5 μg./kg.) and of noradrenaline (1.25 to 2.5 μg./kg.) are determined before and after injection of the products tested.

[5] = 0.04 mg./kg. i.v. (1/1,000 LD 50)
[6] = 0.04 mg./kg. i.v. (1/1,000 LD 50), first or only phase
[7] = dose 50 g./kg. (so in the source)
[8] = dose 100 g./kg. (so in the source)
[9] = dose 500 g./kg. (so in the source)

For `CCCNCC1COc2ccccc2C1=O` (stereo not drawn) [LJ 1048, 3-(n-Propylaminomethyl)-4-chromanone hydrochloride], the LD50 at 360 h ([1]; intravenous administration) was 36 mg/kg, the LD50 at 360 h ([1]; oral administration) was 362 mg/kg and the “Hb (heart beat), maximum per cent variation” value (from here on “Hb … per cent variation”) ([2]; 0.7 mg./kg. i.v. (1/50 LD 50)) was “+33%”. For the same compound, the “Hb, duration of action” value ([2]; 0.7 mg./kg. i.v. (1/50 LD 50)) was greater than 60 min, the “LVP (left ventricular pressure), maximum per cent variation” value ([2]; 0.7 mg./kg. i.v. (1/50 LD 50)) was -21% and the “LVP, duration of action” value ([2]; 0.7 mg./kg. i.v. (1/50 LD 50)) was 30 min. The “Mean AP, duration of action” value ([2]; 0.7 mg./kg. i.v. (1/50 LD 50)) was greater than 60 min, the “Mean AP, maximum per cent variation” value ([2]; 0.7 mg./kg. i.v. (1/50 LD 50)) was -38% and the “dLVP/dt, duration of action” value ([2]; 0.7 mg./kg. i.v. (1/50 LD 50)) was 60 min. For the same compound, the “dLVP/dt, maximum per cent variation” value ([2]; 0.7 mg./kg. i.v. (1/50 LD 50)) was “+28%”, the activation at 0.0001 mg [3] was 22% and the activation at 0.001 mg [3] was 33%. For the same compound, the activation at 0.01 mg [3] was 33%, the activation at 0.1 mg [3] was 29% and the peripheral vasodilatory action [3] was “low activity”.

For `CC(COc1ccccc1)NC(C)C(O)c1ccc(O)cc1` (stereo not drawn) [Isoxsuprine, reference compound], the “intravenous LD 50 in mice (comparison of three products)” value (mice) was “practically identical”, the “Diastolic AP, duration of action” value [2, 5] was 20 min and the “Diastolic AP, maximum per cent variation” value [2, 5] was -62%. For the same compound, the “FF (mean flow rate of the femoral artery), maximum per cent variation” value [2, 5] was “+63%”, the “FF, duration of action” value [2, 5] was 30 min and the “Hb … per cent variation” value [2, 5] was “+13%”. The “Hb, duration of action” value [2, 5] was 25 min, the “LVP, duration of action” value [2, 5] was 5 min and the “Mean AP, duration of action” value [2, 5] was 20 min. The “Mean AP, maximum per cent variation” value [2, 5] was -50%, the “Systolic AP, duration of action” value [2, 5] was 10 min and the “Systolic AP, maximum per cent variation” value [2, 5] was “+13%”. For the same compound, the “LVP (left ventricular pressure), maximum per cent variation” value [2, 6] was -22%, the “dLVP/dt, maximum per cent variation” value [2, 6] was -18% and the “dLVP/dt, duration of action, second phase ("then")” value [2, 5] was 5 min. The “dLVP/dt, maximum per cent variation, second phase ("then")” value [2, 5] was “+12%”, the activation at 0.0001 mg [3] was 38% and the activation at 0.001 mg [3] was 61%. The activation at 0.01 mg [3] was 117%, the activation at 0.1 mg [3] was 175% and the “% variation of the hypertensive effects obtained with electrical stimulation” value (“% variation … with electrical stimulation” below) [4, 7] was -27%. For the same compound, the “% variation of the hypertensive effects obtained with adrenaline” value (shortened to “% variation … with adrenaline”) [4, 7] was -69%, the “% variation of the hypertensive effects obtained with noradrenaline” value (“% variation … with noradrenaline” for short) [4, 7] was -36% and the “% variation … with electrical stimulation” value [4, 8] was -25%. The “% variation … with adrenaline” value [4, 8] was -75%, the “% variation … with noradrenaline” value [4, 8] was -44% and the “% variation … with electrical stimulation” value [4, 9] was -66%. The “% variation … with adrenaline” value [4, 9] was -100% and the “% variation … with noradrenaline” value [4, 9] was -67%.

In the case of `CCCCNCC1COc2ccccc2C1=O` (stereo not drawn) [LJ 1049, 3-(n-Butylaminomethyl)-4-chromanone hydrochloride], the LD50 at 360 h ([1]; intravenous administration) is reported as 24 mg/kg, the LD50 at 360 h ([1]; oral administration) is reported as 262 mg/kg and the “FF (mean flow rate of the femoral artery), maximum per cent variation” value ([2]; 0.5 mg./kg. i.v. (1/50 LD 50)) is reported as “+34%”. For the same compound, the “FF, duration of action” value ([2]; 0.5 mg./kg. i.v. (1/50 LD 50)) was 2 min, the “Hb … per cent variation” value ([2]; 0.5 mg./kg. i.v. (1/50 LD 50)) was “+21%” and the “Hb, duration of action” value ([2]; 0.5 mg./kg. i.v. (1/50 LD 50)) was 40 min. For the same compound, the “LVP (left ventricular pressure), maximum per cent variation” value ([2]; 0.5 mg./kg. i.v. (1/50 LD 50)) was -19%, the “LVP, duration of action” value ([2]; 0.5 mg./kg. i.v. (1/50 LD 50)) was 50 min and the “Mean AP, duration of action” value ([2]; 0.5 mg./kg. i.v. (1/50 LD 50)) was 10 min. The “Mean AP, maximum per cent variation” value ([2]; 0.5 mg./kg. i.v. (1/50 LD 50)) was -15%, the “dLVP/dt, maximum per cent variation” value ([2]; 0.5 mg./kg. i.v. (1/50 LD 50), first phase) was -10% and the “dLVP/dt, duration of action, second phase ("then")” value ([2]; 0.5 mg./kg. i.v. (1/50 LD 50)) was 10 min. For the same compound, the “dLVP/dt, maximum per cent variation, second phase ("then")” value ([2]; 0.5 mg./kg. i.v. (1/50 LD 50)) was “+20%”, the activation at 0.0001 mg [3] was 36% and the activation at 0.001 mg [3] was 36%. The activation at 0.01 mg [3] was 115%, the activation at 0.1 mg [3] was 138% and the “duration of the effects / of the action” value ([3]; at the highest doses) was no less than 30 min. The peripheral vasodilatory action [3] was “great”.

Source: patent US4065575A, “3-Aminomethyl derivatives of 4-chromanone” (Joullie International, priority 1975, dated 1977)
